According to PMC7363588, “Mapping of the FGF14:Nav1.6 complex interface reveals FLPK as a functionally active peptide modulating excitability” (Physiological Reports, 2020):
Entries after “also recorded” stand apart in the source; their conditions may differ. Peptide text beside a SMILES is read from it.

Experiments:
Nav1.6 C-terminal tail = biological target: T1, Nav1.6 C-terminal tail (Homo sapiens, UniProt Q9UQD0); assay: SPR binding to Nav1.6 C-terminal tail; details: for koff, dissociation rate constant / kon, association rate constant: CM5, 25°C, 1–100 µM, RU 12,000, N.M. = not measurable; for binding to Nav1.6 C-terminal tail: peptide 1–100 µM
T1 construct: aa 1756–1939); 6X His (N); made in house; host or cells: E. coli BL21 (DE3) pLys
From the text: Plasmids used in this study derived from the following clones: human FGF14‐1b isoform (accession number: NM_175929.2) and human Nav1.6 (accession number: NM_014191.3). The CLuc‐FGF14, CD4‐Nav1.6‐NLuc, constructs and the pcDNA3.1 vector (Invitrogen, Carlsbad, CA) were engineered and characterized as previously described (Goetz et al., 2009; Shavkunov et al., 2012,2013,2015; Ali et al., 2016, 2018; Wadsworth et al., 2019). The plasmid pGL3 expressing full length Firefly (Photinus pyralis) luciferase was a gift from Dr. P. Sarkar (Department of Neurology, UTMB). For protein purification studies, cDNAs encoding FGF14‐1b (accession number NP_787125; aa 64–252) or the C‐terminal tail of Nav1.6 (accession number #NP_001171455; aa 1756–1939) were subcloned into suitable pET bacterial expression vectors (pET28a‐FGF14; pET30a‐Nav1.6) with a 6X His‐tag at the N‐terminal site; these plasmids were a gift of Dr. Moosa Mohammadi (NYU, Langone Medical Center). The mutation coding for FGF14^V160A was generated by site‐directed mutagenesis and PCR using FGF14‐1b as a template described previously (Ali et al., 2016). For electrophysiological studies FGF14‐GFP (human) and FGF14‐ΔNT‐GFP (human) were cloned into the GFP plasmid (pQBI‐fC2; Quantum Biotechnology Inc., Montreal, Canada) as previously described.
Upon transformation with corresponding cDNA clones, the recombinant proteins FGF14, FGF14^V160A and Nav1.6 C‐terminal tail were expressed in E. coli BL21 (DE3) pLys (Invitrogen) after induction with 0.1 mM isopropyl thio‐β‐D‐galacto‐pyranoside (IPTG) for 24 hr at 16°C. After induction with IPTG, bacterial cells were harvested and lysed by sonication at 4°C in lysis/binding buffer containing following components (mM): sodium phosphate 10 (prepared from 0.5 M of Na2HPO4 and NaH2PO4) + 3‐cholamidopropyl dimethylammonio 1‐propanesulfonate 0.1% pH 7.0 (for FGF14 proteins) + HEPES 25 + NaCl 150 + glycerol 10% (Nav1.6) pH 7.5 and containing 0.1 mM phenyl methyl sulphonyl fluoride (PMSF). The respective proteins were centrifuged at 18,000 g for 30 min at 4°C. For purification of FGF14 and FGF14^V160A, the supernatant was applied to preequilibrated heparin and the proteins were then eluted with NaCl 0.2–2.0 M in the elution (sodium phosphate 10 mM + NaCl 0.2–2.0 M pH 7.0) buffer. For purification of the Nav1.6 C‐tail, the supernatant was applied first to Ni^2+ NTA column and eluted with imidazole (200 mM). The Nav1.6 C‐tail was further purified using HiTrap QFF‐sepharose column (GE Healthcare Bio‐Sciences, Pittsburgh, PA) with a buffer containing Tris‐HCl 50 mM and eluted with NaCl (10–500 mM) at pH 7.5. Finally, all concentrated proteins were purified on an AKTA FPLC purifier using Superdex 200 Hiload 16 × 60 columns (GE Healthcare Bio‐Sciences) and equilibrated in Tris‐HCl 50 mM + NaCl 150 mM, pH 7.5 (Ali et al., 2016; Scala et al., 2018).
SPR experiments were performed on a Biacore T100 (GE Healthcare Bio‐Sciences, Pittsburgh, PA), and the interaction of FGF14 and Nav1.6 channel toward FLPK, PLEV and EYYV (1–100 µM) were studied at 25°C. To analyze the effects of FLPK, PLEV and EYYV on FGF14^WT (RU 16,000), FGF14^V160A (RU 18,000) and Nav1.6 C‐tail (RU 12,000), the proteins were immobilized on CM5 sensor chip using Acetate 5.5 with Amine Coupling Kit (Biacore GE Healthcare Bio‐Sciences). No protein was coupled to the control flow channel of the chip. Using a flow rate of 50 µl/min, FLPK, PLEV and EYYV (1–100 µM) diluted in HBS‐P^+ buffer were injected over the chip for 180 s, followed by injection of HBS‐P+ for 180 s to monitor dissociation, and finally the chip surface was regenerated with NaCl (200 mM). For each peptide injection, nonspecific responses (buffer only) were subtracted from experimental sensograms/traces prior to data analysis. Maximal equilibrium responses were plotted against peptide concentrations and association rate constant (kon), dissociation rate constatnt (koff) were determined. […]

[1] = system: FGF14^Y158N/V160N:Nav1.6 complex; assay: LCA, CLuc-FGF14^Y158N/V160N; assay type: cell-based, human; details: 50 µM peptide, 12 hr, HEK293, vs DMSO

T1 sequence (Q9UQD0 1797-1980): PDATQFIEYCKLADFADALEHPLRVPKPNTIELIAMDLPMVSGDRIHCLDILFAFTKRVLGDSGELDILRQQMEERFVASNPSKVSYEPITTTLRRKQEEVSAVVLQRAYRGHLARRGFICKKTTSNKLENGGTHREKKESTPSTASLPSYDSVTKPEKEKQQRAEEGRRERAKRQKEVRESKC

In the case of “EYYV [tetrapeptide previously designed from FGF14:FGF14 dimer interface; docked with N-terminal acetylation and C-terminal amidation]”, the “koff, dissociation rate constant” value (Nav1.6 C-terminal tail) was “N.M”, the “kon, association rate constant” value (Nav1.6 C-terminal tail) was “N.M” and the “binding to Nav1.6 C-terminal tail” value (Nav1.6 C-terminal tail) was “no appreciable affinity to either protein was detected”.

With “PLEV [tetrapeptide previously designed from FGF14:FGF14 dimer interface; docked with N-terminal acetylation and C-terminal amidation]” the “effect on FGF14^Y158N/V160N:Nav1.6 complex formation” value [1] was “increased the inhibition”, the “koff, dissociation rate constant” value (Nav1.6 C-terminal tail) was “N.M” and the “kon, association rate constant” value (Nav1.6 C-terminal tail) was “N.M”. The “binding to Nav1.6 C-terminal tail” value (Nav1.6 C-terminal tail) was “no appreciable affinity to either protein was detected”.

In the case of `CC(=O)N[C@@H](Cc1ccccc1)C(=O)N[C@@H](CC(C)C)C(=O)N1CCC[C@H]1C(=O)N[C@@H](CCCCN)C(N)=O` [FLPK] (Ac-FLPK-NH2), the “effect on FGF14^Y158N/V160N:Nav1.6 complex formation” value [1] was “abolished the effect of FLPK; also recorded: similarly abolished”, the “koff, dissociation rate constant” value (Nav1.6 C-terminal tail) was “N.M” and the “kon, association rate constant” value (Nav1.6 C-terminal tail) was “N.M”. For the same compound, the “binding to Nav1.6 C-terminal tail” value (Nav1.6 C-terminal tail) was “no measurable binding”.
